Measured values: patent US8455398B2, “Amide compounds, preparation methods and uses thereof” (Sinochem Corporation, priority 2008, dated 2013)

Experiments:
[1] = tested on: diamond backmoth (Plutella xylostella); assay: Insecticidal activity, spray test, diamond backmoth; format: in vivo; conditions: 600 ppm, mortality after two to three days
Experimental: (§1) Determination of insecticidal and acaricidal activity of selected compounds were carried out by following procedure:
(§2) Compounds were dissolved in mixed solvent (acetone:methanol=1:1), and diluted to required concentration with water containing 0.1% of tween 80.
(§3) The armyworm (Leucania separata), the second stage Juvenile of diamond backmoth (Plutella xylostella), lesser army worm (Spodoptera exiqua), green peach aphids (Myzus persicae) and mite (Tetranychus cinnabarinus) were used in biological test. The test was employed either spraying by airbrush. A test solution (0.5 ml) was sprayed at the pressure of 10 psi (0.7 kg/cm^2). Percent mortality was determined after two to three days.

[2] = tested on: lesser army worm (Spodoptera exiqua); assay: Insecticidal activity, spray test, lesser armyworm; format: in vivo; conditions: mortality after two to three days
Experimental: as §1, §2, §3

plant diseases = assay: Fungicidal activity in vivo against plant diseases (overall); conditions: 400 ppm
Experimental: (§4) Determine the fungicidal activities of the compounds of the present invention against plant diseases, carried by following procedure:
(§5) Determination of Fungicidal Activity In Vivo:
(§6) Compounds were dissolved in acetone, and diluted to required concentration with water containing 0.1% of tween 80. Plants were sprayed by a sprayer. After 24 hours, plants were innoculated and then transferred into a dew chamber for infection. After the infection period normally one week), the plants were scored for disease control.

cucumber anthracnose = assay: Fungicidal activity in vivo, cucumber anthracnose; conditions: plants sprayed, inoculated after 24 hours
Experimental: as §4, §5, §6

SMILES	control of diamond backmoth [1] [%]	control of lesser armyworm ([2]; 600 ppm) [%]	other results
Cc1cc(Cl)cc(C(=O)NCCCNc2ncc(Cl)cc2Cl)c1NC(=O)c1cc(Br)nn1-c1ncccc1Cl [Table 211-199]	100	100	control of lesser armyworm ([2]; 10 ppm): 100%
CNC(=O)c1cc(Cl)cc(C)c1NC(=O)c1cc(Br)nn1-c1ncccc1Cl [chlorantraniliprole]			fungicidal activity (plant diseases): no fungicidal activity
Cc1cc(Cl)cc(C(=O)NCCCNc2ncc(C#N)cc2Cl)c1NC(=O)c1cc(Br)nn1-c1ncccc1Cl [Table 182-199]	100	100	
Cc1cc(Cl)cc(C(=O)NCCNc2ncc(C#N)cc2Cl)c1NC(=O)c1cc(Br)nn1-c1ncccc1Cl [Table 182-83]	100	100	
Cc1cc(Cl)cc(C(=O)N2CCN(c3ncccc3Cl)CC2)c1NC(=O)c1cc(Br)nn1-c1ncccc1Cl [Table 179-303]	100	100	
Cc1cc(Cl)cc(C(=O)NCCNc2ncc(C(F)(F)F)cc2Cl)c1NC(=O)c1cc(Br)nn1-c1ncccc1Cl [Table 181-83]	100	100	control of cucumber anthracnose (cucumber anthracnose; 50 ppm): 100%; control of cucumber anthracnose (cucumber anthracnose; 400 ppm): 100%; control of lesser armyworm ([2]; 0.1 ppm): more than 60%; control of lesser armyworm ([2]; 1 ppm): 100%; control of lesser armyworm ([2]; 10 ppm): 100%
Cc1cc(Cl)cc(C(=O)NCCNc2ccc(C(F)(F)F)cc2Cl)c1NC(=O)c1cc(Br)nn1-c1ncccc1Cl [Table 173-83]	100	100	
Cc1cc(Cl)cc(C(=O)NCCNc2ncc(Cl)cc2Cl)c1NC(=O)c1cc(Br)nn1-c1ncccc1Cl [Table 211-83]	100	100	control of cucumber anthracnose (cucumber anthracnose; 400 ppm): 100%
Cc1cc(Cl)cc(C(=O)NCCCNc2ncc(C(F)(F)F)cc2Cl)c1NC(=O)c1cc(Br)nn1-c1ncccc1Cl [Table 181-199]	100	100	control of lesser armyworm ([2]; 1 ppm): 100%; control of lesser armyworm ([2]; 10 ppm): 100%
Cc1cc(C(=O)NCCNc2ncc(C#N)cc2Cl)ccc1NC(=O)c1cc(Br)nn1-c1ncccc1Cl [83 in Table 96]			control of cucumber anthracnose (cucumber anthracnose; 400 ppm): 100%
Cc1cc(Cl)cc(C(=O)N2CCN(c3ncc(C(F)(F)F)cc3Cl)CC2)c1NC(=O)c1cc(Br)nn1-c1ncccc1Cl [Table 181-303]	100	100	
Cc1cc(Cl)cc(C(=O)NCCNc2ncccc2Cl)c1NC(=O)c1cc(Br)nn1-c1ncccc1Cl [Table 179-83]	100	100	
Cc1cc(Cl)cc(C(=O)NCCCNc2ncccc2Cl)c1NC(=O)c1cc(Br)nn1-c1ncccc1Cl [Table 179-199]	100	100	
Cc1cc(Cl)cc(C(=O)NC(C)CNc2ncc(C(F)(F)F)cc2Cl)c1NC(=O)c1cc(Br)nn1-c1ncccc1Cl (centres unmarked) [Table 181-304]	100	100	
Cc1cc(Cl)cc(C(=O)NC(C)CNc2ncccc2Cl)c1NC(=O)c1cc(Br)nn1-c1ncccc1Cl (centres unmarked) [Table 179-304]	100	100	control of cucumber anthracnose (cucumber anthracnose; 50 ppm): 100%; control of cucumber anthracnose (cucumber anthracnose; 400 ppm): 100%; control of lesser armyworm ([2]; 1 ppm): 100%; control of lesser armyworm ([2]; 10 ppm): 100%
